This is an account of results in patent US20210085807A1, “METAL-BINDING PEPTIDE AND USE THEREOF” (The University of Tokyo, priority 2018, published 2021).

The experiment can be described thus: Adsorption on stent in plasma, fluorescence microscopy. Type of experiment: binding. To be noted: stent immersed in human plasma 37° C., 30 minutes, then 0.5 mM peptide or PEG-peptide conjugate solution 37° C. As to the method:
Next, in order to analyze the binding ability of the peptide of the present invention to a stent existing in plasma, whether or not the peptide of the present invention binds to a stent that has been allowed to come into contact with plasma was examined.
That is, a stent was immersed in human plasma (37° C., 30 minutes), and was then removed from the plasma. The stent was then immersed in each peptide solution (0.5 mM) and a PEG-peptide conjugate solution (0.5 mM) (37° C., 30 minutes). Thereafter, the stent was sufficiently rinsed with PBS, and was then observed under a fluorescence microscope.
FIG. 15 and FIG. 16 show the fluorescence microscopic images of the stents, and the observed fluorescence intensities are summarized in FIG. 17. The method of digitizing the fluorescence intensity is as described above.

Turning to LTPHKHHKHLHA [YT07], the “binding to the surface of the stent after contact with human plasma” value is “does not bind to a stent”.
